Active and inactive are the calls of the source. The calls are words filed in the database; no cut-off is given here.
Columns and labels:
[1] = biological target: Prothrombin (Homo sapiens) (UniProt P00734); assay: Inhibition of factor 2a (unknown origin) at IC50 preincubated for 1 min followed by chromogenic substrate addition and measured for 2 mins; settings: time 3.0 min
[2] = biological target: T1, Coagulation factor VII (Homo sapiens) (UniProt P08709); assay: Inhibition of factor 7a (unknown origin) at IC50 using pefachrome factor VIIa as substrate preincubated for 1 min followed by chromogenic substrate addition and measured for 2 mins; settings: time 3.0 min
T1 sequence (whole entry): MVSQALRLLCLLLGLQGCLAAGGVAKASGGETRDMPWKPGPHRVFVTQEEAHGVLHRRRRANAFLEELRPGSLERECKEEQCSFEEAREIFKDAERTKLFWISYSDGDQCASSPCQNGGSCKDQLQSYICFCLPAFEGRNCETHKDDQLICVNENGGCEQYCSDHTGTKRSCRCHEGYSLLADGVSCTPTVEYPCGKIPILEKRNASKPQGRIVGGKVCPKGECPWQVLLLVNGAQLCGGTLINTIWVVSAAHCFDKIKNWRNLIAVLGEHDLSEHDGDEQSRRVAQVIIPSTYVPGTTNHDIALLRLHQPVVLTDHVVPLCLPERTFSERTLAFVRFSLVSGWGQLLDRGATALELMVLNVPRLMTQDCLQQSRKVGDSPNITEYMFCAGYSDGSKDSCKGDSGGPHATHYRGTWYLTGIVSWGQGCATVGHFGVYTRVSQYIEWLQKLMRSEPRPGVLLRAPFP

[3] = biological target: Coagulation factor XI (Homo sapiens) (UniProt P03951); assay: Inhibition of factor 11a (unknown origin) at IC50 using S-2366 as substrate preincubated for 1 min followed by chromogenic substrate addition and measured for 2 mins; settings: time 3.0 min
[4] = biological target: T2, Coagulation factor XII (Homo sapiens) (UniProt P00748); assay: Inhibition of factor 12a (unknown origin) at IC50 using kallikrein chromogenic substrate preincubated for 1 min followed by chromogenic substrate addition and measured for 2 mins; settings: time 3.0 min
T2 sequence (whole entry): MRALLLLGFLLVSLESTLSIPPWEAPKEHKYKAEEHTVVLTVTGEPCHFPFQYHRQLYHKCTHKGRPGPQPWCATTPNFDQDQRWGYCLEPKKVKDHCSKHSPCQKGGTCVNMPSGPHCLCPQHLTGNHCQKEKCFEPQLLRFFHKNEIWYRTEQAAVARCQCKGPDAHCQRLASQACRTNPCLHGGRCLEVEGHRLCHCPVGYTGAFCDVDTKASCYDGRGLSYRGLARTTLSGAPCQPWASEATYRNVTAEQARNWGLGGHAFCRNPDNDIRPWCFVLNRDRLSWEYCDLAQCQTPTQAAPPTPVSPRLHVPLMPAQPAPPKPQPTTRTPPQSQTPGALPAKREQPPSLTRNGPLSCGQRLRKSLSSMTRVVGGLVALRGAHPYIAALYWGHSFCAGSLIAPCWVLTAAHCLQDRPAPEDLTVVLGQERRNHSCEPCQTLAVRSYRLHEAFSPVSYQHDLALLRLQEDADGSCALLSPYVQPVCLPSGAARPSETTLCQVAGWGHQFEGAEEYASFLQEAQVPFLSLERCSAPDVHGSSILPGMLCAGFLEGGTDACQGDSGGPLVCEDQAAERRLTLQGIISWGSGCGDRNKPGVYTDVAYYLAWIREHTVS

[5] = biological target: Prothrombin (Homo sapiens) (UniProt P00734); assay: Inhibition of factor 2a (unknown origin) at IC50 preincubated for 1 min followed by chromogenic substrate addition and measured for 2 mins in presence of AT-III; settings: time 3.0 min
[6] = biological target: T1, Coagulation factor VII (Homo sapiens); assay: Inhibition of factor 7a (unknown origin) at IC50 using pefachrome factor VIIa as substrate preincubated for 1 min followed by chromogenic substrate addition and measured for 2 mins in presence of AT-III; settings: time 3.0 min
[7] = biological target: Coagulation factor X (Homo sapiens) (UniProt P00742); assay: Inhibition of factor 10a (unknown origin) at IC50 preincubated for 1 min followed by chromogenic substrate addition and measured for 2 mins in presence of AT-III; settings: time 3.0 min
[8] = biological target: Coagulation factor XI (Homo sapiens) (UniProt P03951); assay: Inhibition of factor 11a (unknown origin) at IC50 using S-2366 as substrate preincubated for 1 min followed by chromogenic substrate addition and measured for 2 mins in presence of AT-III; settings: time 3.0 min
[9] = biological target: T2, Coagulation factor XII (Homo sapiens); assay: Inhibition of factor 12a (unknown origin) at IC50 using kallikrein chromogenic substrate preincubated for 1 min followed by chromogenic substrate addition and measured for 2 mins in presence of AT-III; settings: time 3.0 min
[10] = biological target: Prothrombin (Homo sapiens) (UniProt P00734); assay: Inhibition of factor 2a (unknown origin) at IC90 preincubated for 1 min followed by chromogenic substrate addition and measured for 2 mins in presence of AT-III; settings: time 3.0 min
[11] = biological target: Coagulation factor XI (Homo sapiens) (UniProt P03951); assay: Inhibition of factor 11a (unknown origin) at IC90 using S-2366 as substrate preincubated for 1 min followed by chromogenic substrate addition and measured for 2 mins in presence of AT-III; settings: time 3.0 min
[12] = biological target: Coagulation factor X (Homo sapiens) (UniProt P00742); assay: Inhibition of factor 10a (unknown origin) at IC90 preincubated for 1 min followed by chromogenic substrate addition and measured for 2 mins in presence of AT-III relative to control; settings: time 3.0 min
Plasma = assay: Anticoagulation activity in human plasma assessed as drug level causing 20 times doubling of APTT preincubated for 2 mins followed by APTT reagent and measured after 3 mins by coagulometric method; assay type: functional; settings: time 5 min
Rattus norvegicus [13] = assay: Antithrombotic activity in thromboplastin and stasis-induced Sprague-Dawley rat deep venous thrombosis model assessed as reduction in venous thrombosis administered subcutaneously 1 hr prior to thromboplastin addition for 20 secs followed by establishment of stasis for 20 mins; assay type: functional; settings: time 80.33 min
Rattus norvegicus [14] = assay: Antithrombotic activity in thromboplastin and stasis-induced Sprague-Dawley rat deep venous thrombosis model assessed as reduction in venous thrombosis at 2.7 mg/kg, sc administered 1 hr prior to thromboplastin addition for 20 secs followed by establishment of stasis for 20 mins; assay type: functional; set-up: scale not given: the % may be the effect or the level left; settings: time 80.33 min, 1.339 h
[15] = Toxicity in Kunming mouse tail bleeding model assessed as blood loss at 73.01 mg/kg, sc measured after 1 hr by UV-vis spectrophotometry; assay type: organism-based; settings: in vivo
Mus musculus [16] = assay: Anticoagulation activity in Kunming mouse assessed as APTT-prolonging effect by measuring time for maximum effect at 1.7 mg/kg, sc measured after 0.5 to 8 hrs by APTT reagent based assay; assay type: functional; settings: time 0.5-8 hrs
[17] = Tmax in Kunming mouse at 1.7 mg/kg, sc; assay type: ADME, organism-based; settings: in vivo
[18] = MRT (0 to infinity) in Kunming mouse at 1.7 mg/kg, sc; assay type: ADME, organism-based; settings: in vivo
[19] = Half life in Kunming mouse at 1.7 mg/kg, sc; assay type: ADME, organism-based; settings: in vivo
[20] = Tmax in Kunming mouse at 5.11 mg/kg, sc; assay type: ADME, organism-based; settings: in vivo
[21] = MRT (0 to infinity) in Kunming mouse at 5.11 mg/kg, sc; assay type: ADME, organism-based; settings: in vivo
[22] = Half life in Kunming mouse at 5.11 mg/kg, sc; assay type: ADME, organism-based; settings: in vivo
Mus musculus [23] = assay: Anticoagulation activity in Kunming mouse assessed as APTT-prolonging effect by measuring time for maximum effect at 15.3 mg/kg, sc measured after 0.5 to 8 hrs by APTT reagent based assay; assay type: functional; settings: time 0.5-8 hrs
[24] = Tmax in Kunming mouse at 15.3 mg/kg, sc; assay type: ADME, organism-based; settings: in vivo
[25] = MRT (0 to 8 hrs) in Kunming mouse at 15.3 mg/kg, sc; assay type: ADME, organism-based; settings: in vivo

Chain of Coagulation factor XI (Homo sapiens) (P03951 19-387 limits assumed): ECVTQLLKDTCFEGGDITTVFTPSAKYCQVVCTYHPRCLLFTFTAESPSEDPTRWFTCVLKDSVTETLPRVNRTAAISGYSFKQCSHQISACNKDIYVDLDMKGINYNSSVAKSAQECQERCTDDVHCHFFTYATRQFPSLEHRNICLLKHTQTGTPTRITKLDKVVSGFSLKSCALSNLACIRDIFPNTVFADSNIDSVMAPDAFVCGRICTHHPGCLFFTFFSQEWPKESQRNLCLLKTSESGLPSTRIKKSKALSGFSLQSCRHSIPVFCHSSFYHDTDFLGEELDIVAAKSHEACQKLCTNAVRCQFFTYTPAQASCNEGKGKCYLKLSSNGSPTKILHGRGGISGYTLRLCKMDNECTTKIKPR
Chain of Coagulation factor XI (Homo sapiens) (P03951 388-625 limits assumed): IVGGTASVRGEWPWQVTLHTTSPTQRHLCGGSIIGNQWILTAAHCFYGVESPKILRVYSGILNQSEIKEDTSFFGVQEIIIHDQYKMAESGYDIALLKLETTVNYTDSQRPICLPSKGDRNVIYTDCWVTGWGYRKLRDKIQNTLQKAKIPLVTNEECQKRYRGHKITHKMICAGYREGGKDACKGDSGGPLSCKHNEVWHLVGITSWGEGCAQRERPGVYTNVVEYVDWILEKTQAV
Chain of Coagulation factor X (Homo sapiens) (P00742 41-179 limits assumed): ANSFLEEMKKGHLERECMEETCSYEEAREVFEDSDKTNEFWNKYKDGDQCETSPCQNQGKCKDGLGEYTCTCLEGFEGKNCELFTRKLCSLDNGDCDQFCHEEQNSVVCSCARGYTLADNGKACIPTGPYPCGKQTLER
Chain of Coagulation factor X (Homo sapiens) (P00742 235-488 limits assumed): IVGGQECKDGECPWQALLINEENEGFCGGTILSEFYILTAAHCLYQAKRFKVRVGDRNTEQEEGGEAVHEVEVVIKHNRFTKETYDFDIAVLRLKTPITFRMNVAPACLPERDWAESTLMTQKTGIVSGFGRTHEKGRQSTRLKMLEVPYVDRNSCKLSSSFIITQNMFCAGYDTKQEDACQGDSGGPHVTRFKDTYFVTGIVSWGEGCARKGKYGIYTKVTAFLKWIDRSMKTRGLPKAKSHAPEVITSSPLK

inhibition [1]: inactive
inhibition (active/not active) [2]: inactive
inhibition [3]: inactive
inhibition [4]: inactive
inhibition [5]: inactive
inhibition [6]: inactive
inhibition [7]: inactive
inhibition [8]: inactive
inhibition [9]: inactive
inhibition [10]: Active
inhibition [11]: Active
inhibition [12]: inactive
Tmax [17]: 1.17 h
MRT inf [18]: 2.21 h
half-life [19]: 1.09 h
Tmax [20]: 0.75 h
MRT inf [21]: 1.52 h
half-life [22]: 0.563 h
Tmax [24]: 0.75 h
MRT last [25]: 1.66 h
Structure (SMILES): CC(=O)N[C@H]1[C@H](O[C@H]2[C@H](O[C@@H]3O[C@@H](C)[C@@H](OS(=O)(=O)[O-])[C@@H](O)[C@@H]3OS(=O)(=O)O)[C@@H](O)[C@H](O[C@H]3[C@@H](NC(C)=O)[C@H](O[C@H]4[C@H](O[C@@H]5O[C@@H](C)[C@@H](OS(=O)(=O)[O-])[C@@H](O)[C@@H]5OS(=O)(=O)O)[C@@H](O)[C@H](O[C@H]5[C@@H](NC(C)=O)[C@H](O[C@H]6[C@H](O[C@@H]7O[C@@H](C)[C@@H](OS(=O)(=O)[O-])[C@@H](O)[C@@H]7OS(=O)(=O)O)[C@@H](O)[C@H](O[C@H]7[C@@H](NC(C)=O)[C@H](O[C@H]8[C@H](O[C@@H]9O[C@@H](C)[C@@H](OS(=O)(=O)[O-])[C@@H](O)[C@@H]9OS(=O)(=O)O)[C@@H](O)[C@H](O[C@H]9[C@@H](NC(C)=O)[C@H](O[C@@H]([C@H](O[C@@H]%10O[C@@H](C)[C@@H](OS(=O)(=O)[O-])[C@@H](O)[C@@H]%10OS(=O)(=O)O)[C@@H](O)CO)[C@H](O)C(=O)[O-])O[C@H](COS(=O)(=O)[O-])[C@@H]9OS(=O)(=O)[O-])O[C@@H]8C(=O)[O-])O[C@H](COS(=O)(=O)[O-])[C@@H]7OS(=O)(=O)[O-])O[C@@H]6C(=O)[O-])O[C@H](COS(=O)(=O)[O-])[C@@H]5OS(=O)(=O)[O-])O[C@@H]4C(=O)[O-])O[C@H](COS(=O)(=O)[O-])[C@@H]3OS(=O)(=O)[O-])O[C@@H]2C(=O)[O-])O[C@H](COS(=O)(=O)[O-])[C@H](OS(=O)(=O)[O-])[C@@H]1O[C@@H]1OC(C(=O)[O-])=C[C@H](O[C@@H]2O[C@@H](C)[C@@H](OS(=O)(=O)[O-])[C@@H](O)[C@@H]2OS(=O)(=O)O)[C@H]1O.[Na+].[Na+].[Na+].[Na+].[Na+].[Na+].[Na+].[Na+].[Na+].[Na+].[Na+].[Na+].[Na+].[Na+].[Na+].[Na+].[Na+].[Na+].[Na+].[Na+].[Na+].[Na+]
EC (Plasma): 1.79 µM
ED50 (Rattus norvegicus [13]; sc, 1.339 h): 2.38 mg/kg
Activity (Rattus norvegicus [13]): Dose-dependent effect
Activity (Rattus norvegicus [14]): 60.7%
Activity [15]: 139 µL
Emax (Mus musculus [16]): 4.39 s
Emax (Mus musculus [23]): 20.2 s

Reference: ChEMBL document CHEMBL4765450, “The components and activities analysis of a novel anticoagulant candidate dHG-5” (Eur J Med Chem, 2020)
